Experimental data published in US20050176813A1, “Novel chalcone derivatives and uses thereof” (priority 2002, published 2005).
Like-named read-outs stand apart in the source and are kept apart here.

Key:
[1] = biological target: Kv1.3 (Homo sapiens, UniProt P22001); assay: Kv1.3 channel block, estimated Kd (Table 1); assay type: binding; conditions: for Block phasic or not: Kv1.3
[2] = test system: human peripheral blood lymphocytes; assay: Proliferation test, [3H]-thymidine incorporation assay, anti-CD3 stimulated; assay type: cell-based; conditions: Homo sapiens, Lymphocyte; anti-CD3 stimulation, 48 h; read-out: EC50, suppression of proliferation of human peripheral blood lymphocytes
Method: Proliferation Test [^3H]-Thymidine Incorporation Assay
Resting peripheral blood mononuclear cells from healthy volunteers were seeded at 2×10^5 cells per well in medium (RPMI 1640 supplemented 10% fetal calf serum, 2 mM glutamine, 1 mM sodium pyruvate, 1% nonessential amino acids, 100 units/ml penicillin, 100 μg/ml streptomycin and 50 μM β-mercaptoethanol) in flat-bottom 96 well plates (final volume 200 μl). Cells pre-incubated with drug (60 min), were stimulated with 5 ng/ml anti-CD3 Ab) for 48 h. [^3H]-Thymidine (1 μCi per well) was added for the last 6 h. Cells were harvested onto glass fibre filters and radioactivity measured in a scintillation counter. All experiments were done in triplicate. Results are reported as normalised for maximum [^3H]-thymidine incorporation for controls.

[3] = Kv1.3, end, read-out: Est. Kd, Kd end
[4] = Kv1.3, peak, read-out: Est. Kd, Kd peak

Kv1.3, sequence (P22001 whole entry): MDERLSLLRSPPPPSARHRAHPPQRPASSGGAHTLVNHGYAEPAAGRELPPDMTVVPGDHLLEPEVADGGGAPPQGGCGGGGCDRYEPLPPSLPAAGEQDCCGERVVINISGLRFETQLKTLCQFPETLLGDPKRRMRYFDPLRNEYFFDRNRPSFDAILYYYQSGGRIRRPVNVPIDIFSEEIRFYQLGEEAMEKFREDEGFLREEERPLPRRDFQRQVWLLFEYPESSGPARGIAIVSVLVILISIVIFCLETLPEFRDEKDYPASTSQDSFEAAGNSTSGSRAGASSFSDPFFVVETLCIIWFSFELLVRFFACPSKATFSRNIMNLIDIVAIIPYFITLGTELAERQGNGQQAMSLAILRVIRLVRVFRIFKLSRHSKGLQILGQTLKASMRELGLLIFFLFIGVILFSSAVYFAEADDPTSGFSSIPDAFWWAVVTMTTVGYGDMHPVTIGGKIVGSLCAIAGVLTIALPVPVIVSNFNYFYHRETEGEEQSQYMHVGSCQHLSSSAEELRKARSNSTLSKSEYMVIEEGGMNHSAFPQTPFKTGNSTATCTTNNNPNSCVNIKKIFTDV

SMILES: COc1c(C(=O)CCc2ccccc2)c(O)c(OC)c2occc12 [Example 2]
- Kd [1, 3]: 0.3 µM
- Kd [1, 4]: 0.8 µM

SMILES: COc1c(O)c(C(=O)CCc2ccccc2)c(OC)c2c1OCC2 [Example 3]
- Kd [1, 4]: 2 µM

SMILES: CCCOc1ccc(/C=C/C(=O)c2c(O)c(OC)c3occc3c2OC)cc1 [Example 4]
- Block phasic or not [1]: not phasic
- Kd [1, 4]: 45 µM
- melting point: 74 to 75 °C

SMILES: COc1c(C(=O)/C=C/c2ccc(-c3ccccc3)cc2)c(O)c(OC)c2occc12 [Example 5]
- Block phasic or not [1]: not phasic
- Kd [1, 4]: 30 µM
- melting point: 122 to 124 °C

SMILES: COc1c(C(=O)/C=C/c2ccc(NC(C)=O)cc2)c(O)c(OC)c2occc12 [Example 6]
- Block phasic or not [1]: not phasic
- Kd [1, 4]: 35 µM
- melting point: 180 to 181 °C

SMILES: COc1c(C(=O)/C=C/c2ccccc2Cl)c(O)c(OC)c2occc12 [Example 7]
- Block phasic or not [1]: not phasic
- Kd [1, 4]: 12 µM
- melting point: 160 to 161 °C

SMILES: COc1c(C(=O)/C=C/c2cccc(Cl)c2)c(O)c(OC)c2occc12 [Example 8]
- Block phasic or not [1]: not phasic
- Kd [1, 4]: 15 µM

SMILES: COc1c(C(=O)/C=C/c2ccc(Cl)cc2)c(O)c(OC)c2occc12 [Example 9]
- Block phasic or not [1]: not phasic
- Kd [1, 4]: 7 µM

SMILES: COc1c(C(=O)/C=C/c2cccc(C#N)c2)c(O)c(OC)c2occc12 [Example 10]
- Block phasic or not [1]: not phasic
- Kd [1, 4]: 20 µM
- melting point: 182 to 183 °C

SMILES: COc1c(C(=O)/C=C/c2ccc(C#N)cc2)c(O)c(OC)c2occc12 [Example 11]
- Block phasic or not [1]: not phasic
- Kd [1, 4]: 12 µM
- melting point: 196 to 198 °C

SMILES: CCN(CC)CCOc1ccc(/C=C/C(=O)c2c(O)c(OC)c3occc3c2OC)cc1 [Example 12]
- Effect on Kv1.3 ([1]; at 10 μM): 10 μM no effect Not tested against other channels

SMILES: CCN(CC)c1ccc(/C=C/C(=O)c2c(O)c(OC)c3occc3c2OC)cc1 [Example 13]
- Block phasic or not [1]: not phasic
- Kd [1, 4]: 18 µM

SMILES: CCOc1ccc(/C=C/C(=O)c2c(O)c(OC)c3occc3c2OC)cc1 [Example 14]
- Kd [1, 3]: 1.5 µM
- Kd [1, 4]: 10 µM

SMILES: COc1c(C(=O)/C=C/c2ccccc2F)c(O)c(OC)c2occc12 [Example 15]
- Kd [1, 3]: 12 µM
- Kd [1, 4]: 90 µM

SMILES: COc1c(C(=O)/C=C/c2cccc(F)c2)c(O)c(OC)c2occc12 [Example 16]
- Kd [1, 3]: 4 µM
- Kd [1, 4]: 35 µM
- melting point: 121 to 123 °C

SMILES: COc1c(C(=O)/C=C/c2ccc(F)cc2)c(O)c(OC)c2occc12 [Example 17]
- Kd [1, 3]: 1 µM
- Kd [1, 4]: 8 µM

SMILES: COc1c(C(=O)/C=C/c2ccc(O)cc2)c(O)c(OC)c2occc12 [Example 19]
- Kd [1, 3]: 0.9 µM
- Kd [1, 4]: 10 µM

SMILES: COc1c(C(=O)/C=C/c2ccc(C(C)C)cc2)c(O)c(OC)c2occc12 [Example 20]
- Block phasic or not [1]: not phasic
- Kd [1, 4]: 3 µM

SMILES: COc1c(C(=O)/C=C/c2ccccc2C)c(O)c(OC)c2occc12 [Example 21]
- Block phasic or not [1]: not phasic
- Kd [1, 4]: 2 µM

SMILES: COc1c(C(=O)/C=C/c2cccc(C)c2)c(O)c(OC)c2occc12 [Example 22]
- Kd [1, 3]: 0.3 µM
- Kd [1, 4]: 1.5 µM
- melting point: 97 to 98 °C

SMILES: COc1c(C(=O)/C=C/c2ccc(C)cc2)c(O)c(OC)c2occc12 [Example 23]
- EC50 [2]: 1.5 µM
- Kd [1, 3]: 0.1 µM
- Kd [1, 4]: 1.5 µM

SMILES: COc1ccccc1/C=C/C(=O)c1c(O)c(OC)c2occc2c1OC [Example 25]
- Kd [1, 3]: 1 µM
- Kd [1, 4]: 5 µM
- melting point: 117 to 118 °C

SMILES: COc1c(C(=O)/C=C/c2ccc3c(c2)OCO3)c(O)c(OC)c2occc12 [Example 26]
- Kd [1, 3]: 1.5 µM
- Kd [1, 4]: 9 µM
- melting point: 139 to 140 °C

SMILES: COc1c(C(=O)/C=C/c2ccccc2[N+](=O)[O-])c(O)c(OC)c2occc12 [Example 27]
- Kd [1, 3]: 5 µM
- Kd [1, 4]: 15 µM
- melting point: 131 to 132 °C

SMILES: COc1c(C(=O)/C=C/c2cccc([N+](=O)[O-])c2)c(O)c(OC)c2occc12 [Example 28]
- block ([1]; Kv1.3, at 5 μM): 5-10% block at 5 μM
- melting point: 97 to 98 °C

SMILES: COc1c(C(=O)/C=C/c2ccc([N+](=O)[O-])cc2)c(O)c(OC)c2occc12 [Example 29]
- Behaviour of stocks in the Kv1.3 test ([1]; stock solutions): Stocks precipitate

SMILES: COc1c(C(=O)/C=C/c2c(F)c(F)c(F)c(F)c2F)c(O)c(OC)c2occc12 [Example 30]
- Kd [1, 3]: 3.5 µM
- Kd [1, 4]: 5 µM
- melting point: 112 to 114 °C
